Assay results reported in patent publication US20240254139A1, “FUSED ISOXAZOLYL COMPOUNDS AS KAT6A INHIBITORS” (Aurigene Oncology Limited, priority 2021, published 2024).

Molecular target: T1, human-KAT6A (MYST domain 507-778 aa) (Homo sapiens, UniProt Q92794)
T1 construct: human-KAT6A (MYST domain 507-778 aa)
Assay: KAT6A biochemical assay (TR-FRET)
Settings: for inhibition at 1 µM: compound at 1 μM, percent inhibition of internal assay controls; for IC50: dose-response, sigmoidal curve fit, groups A, B, C
Text: A TR-FRET based method was used for assaying compounds of the invention for KAT6A enzyme inhibitory activity. TR-FRET is homogeneous proximity assay where Europium-labelled anti-acetyl lysine antibody binds to the acetylated substrate labelled with biotin which in turn binds to streptavidin labelled APC fluorescence acceptor. Europium can transfer energy to APC in the complex and the interaction of two dye-labelled binding partners is detected by the energy transfer between a donor and an acceptor dye, and the subsequent light emission by the acceptor dye. KAT6A transfer an acetyl group from acetyl CoA to lysine amino acids of histones/target proteins. Typically, 5 μL of human-KAT6A (MYST domain 507-778 aa) in assay buffer (100 mM Tris HCl (pH 7.8), 15 mM NaCl, 1 mM EDTA, 0.01% Tween-20, 0.02% BSA, 1 mM DTT) is added to a 384-well plate containing 5 μL of selected test compound in final 1% DMSO, serially diluted in 1:3 in an 8-10-point titration. The selected compound of the present invention and enzyme are incubated for 30 min at room temperature. Next, 5 μL of substrate mix containing histone H4 peptide and acetyl-CoA in assay buffer is added to the plate. The final concentrations of H4 peptide and acetyl-CoA are 200 nM and 600 nM respectively. Following 30 min reaction at room temperature, 5 μL of detection mix containing Europium labelled anti-acetyl antibody and streptavidin-APC is added to the reaction wells. Plate is further incubated for 45 min at room temperature and is read in TR-FRET mode (Ex: 340 nm; Em: 615 nm and 665 nm) on a plate reader.
Selected compounds of the present invention were screened in the above-mentioned assay procedure and IC50 values were determined by fitting the dose-response data to sigmoidal curve fitting equation using Graph pad prism software V8. […]

T1 sequence (Q92794 507-778): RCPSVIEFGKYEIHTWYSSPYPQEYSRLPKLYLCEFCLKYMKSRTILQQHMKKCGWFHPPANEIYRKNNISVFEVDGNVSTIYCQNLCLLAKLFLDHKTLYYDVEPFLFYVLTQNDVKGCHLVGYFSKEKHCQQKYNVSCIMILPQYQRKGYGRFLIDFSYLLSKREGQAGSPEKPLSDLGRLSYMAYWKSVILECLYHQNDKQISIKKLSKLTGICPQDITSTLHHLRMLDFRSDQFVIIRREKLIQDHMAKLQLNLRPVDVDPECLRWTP

| SMILES | inhibition at 1 µM [%] | IC50 [µM] |
| --- | --- | --- |
| COc1cccc(OC)c1S(=O)(=O)Nc1noc2nc(N3CCCCC3)cc(OC)c12 [Compound 12, 2,6-dimethoxy-N-(4-methoxy-6-(piperidin-1-yl)isoxazolo[5,4-b]pyridin-3-yl)benzenesulfonamide] | 54 | – |
| COc1cccc(OC)c1S(=O)(=O)Nc1noc2nc(C3=CCCC3)cc(OC)c12 [Compound 32, N-(6-(cyclopent-1-en-1-yl)-4-methoxyisoxazolo[5,4-b]pyridin-3-yl)-2,6-dimethoxybenzenesulfonamide] | – | 0.11 to 0.2 |
| COc1cc(-c2ccccc2)nc2onc(NS(=O)(=O)c3ccccc3-c3ccccc3)c12 [Compound 5, N-(4-methoxy-6-phenylisoxazolo[5,4-b]pyridin-3-yl)-[1,1′-biphenyl]-2-sulfonamide] | 52 | < 0.1 |
| COc1cccc(OC)c1S(=O)(=O)Nc1noc2cc(-c3ccccc3)nc(OC)c12 [Compound 3, 2,6-dimethoxy-N-(4-methoxy-6-phenylisoxazolo[4,5-c]pyridin-3-yl)benzenesulfonamide] | 96 | 0.11 to 0.2 |
| COc1cccc(OC)c1S(=O)(=O)Nc1noc2nccnc12 [Compound 22, N-(isoxazolo[4,5-b]pyrazin-3-yl)-2,6-dimethoxybenzenesulfonamide] | 12 | – |
